Results published in PubChem BioAssay (NCI).
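At the GI50, growth is halved. TGI: concentration producing complete growth inhibition.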

Legend:
Test in all cases: NCI-60 cell line screen, 384-well format
[1] = test system: EKVX NSCLC
[2] = test system: HOP-92 NSCLC
[3] = test system: OVCAR-3 ovarian
[4] = test system: MDA-MB-231 breast
[5] = test system: SW-620 colon
[6] = test system: OVCAR-8 ovarian
[7] = test system: UACC-62 melanoma
[8] = test system: SF-268 CNS
[9] = test system: HCT-116 colon
[10] = test system: M14 melanoma
[11] = test system: SK-MEL-2 melanoma
[12] = test system: NCI-H23 lung
[13] = test system: LOX IMVI melanoma
[14] = test system: SK-MEL-28 melanoma
[15] = test system: NCI-H460 NSCLC
[16] = test system: MDA-MB-468 breast
[17] = test system: U251 glioblastoma
[18] = test system: UO-31 renal
[19] = test system: ACHN renal
[20] = test system: RXF 393 renal
[21] = test system: HL-60(TB) leukemia
[22] = test system: PC-3 prostate
[23] = test system: IGROV1 ovarian
[24] = test system: SN12C renal
[25] = test system: RPMI-8226 leukemia
[26] = test system: COLO 205 colon
[27] = test system: SK-MEL-5 melanoma
[28] = test system: OVCAR-4 ovarian
[29] = test system: K-562 leukemia
[30] = test system: SNB-75 CNS
[31] = test system: NCI-H322M lung
[32] = test system: CAKI-1 renal
[33] = test system: HCC-2998 colon
[34] = test system: T-47D breast
[35] = test system: MALME-3M melanoma
[36] = test system: HT29 colon
[37] = test system: KM12 colon
[38] = test system: NCI-H226 lung
[39] = test system: SF-539 CNS
[40] = test system: CCRF-CEM leukemia
[41] = test system: MDA-MB-435 melanoma
[42] = test system: SF-295 CNS
[43] = test system: SNB-19 CNS
[44] = test system: 786-0 renal
[45] = test system: OVCAR-5 ovarian
[46] = test system: HS 578T breast
[47] = test system: A498 renal

With `Cc1cc([C@H](C)Nc2nccc(N3C(=O)OC[C@@H]3[C@H](C)F)n2)ncc1-c1ccnc(C(F)(F)F)c1` the GI50 [1] was 11.2 µM, the TGI [1] was 98.2 µM and the GI50 [2] was 29.2 µM. It also gave a TGI [2] of over 100 µM, a GI50 [3] of 22.2 µM and a TGI [3] of 72.3 µM. For the same compound, the GI50 [4] was 46.4 µM, the TGI [4] was over 100 µM and the GI50 [5] was 61 µM. The TGI [5] was over 100 µM, the GI50 [6] was 31.6 µM and the TGI [6] was over 100 µM. The GI50 [7] was 52.2 µM, the TGI [7] was over 100 µM and the GI50 [8] was 68.6 µM. For the same compound, the TGI [8] was over 100 µM, the GI50 [9] was 21 µM and the TGI [9] was 96.7 µM. For the same compound, the GI50 [10] was 86.2 µM, the TGI [10] was over 100 µM and the GI50 [11] was 82.9 µM. The TGI [11] was over 100 µM, the GI50 [12] was 8.03 µM and the TGI [12] was over 100 µM. For the same compound, the GI50 [13] was 53.1 µM, the TGI [13] was over 100 µM and the GI50 [14] was over 100 µM. The TGI [14] was over 100 µM, the GI50 [15] was 37.1 µM and the TGI [15] was over 100 µM. The GI50 [16] was 4.43 µM, the TGI [16] was 24.5 µM and the GI50 [17] was 36.4 µM. For the same compound, the TGI [17] was over 100 µM, the GI50 [18] was 18.8 µM and the TGI [18] was over 100 µM. The GI50 [19] was 40.2 µM, the TGI [19] was over 100 µM and the GI50 [20] was 15.7 µM. It also gave a TGI [20] of 76.5 µM, a GI50 [21] of 17.5 µM and a TGI [21] of 31.3 µM. For the same compound, the GI50 [22] was 27.7 µM, the TGI [22] was over 100 µM and the GI50 [23] was 28.3 µM. The TGI [23] was over 100 µM, the GI50 [24] was 45.5 µM and the TGI [24] was over 100 µM. It also gave a GI50 [25] of 7.2 µM, a TGI [25] of 21.2 µM and a GI50 [26] of 64.1 µM. It also gave a TGI [26] of over 100 µM, a GI50 [27] of 10.2 µM and a TGI [27] of 25.4 µM. It also gave a GI50 [28] of 29.6 µM, a TGI [28] of over 100 µM and a GI50 [29] of 8.88 µM. It also gave a TGI [29] of over 100 µM, a GI50 [30] of 29.7 µM and a TGI [30] of over 100 µM. For the same compound, the GI50 [31] was 41.5 µM, the TGI [31] was over 100 µM and the GI50 [32] was 34.4 µM. It also gave a TGI [32] of over 100 µM, a GI50 [33] of 24.6 µM and a TGI [33] of over 100 µM. The GI50 [34] was 5.13 µM, the TGI [34] was over 100 µM and the GI50 [35] was 28.3 µM. For the same compound, the TGI [35] was over 100 µM, the GI50 [36] was 31.7 µM and the TGI [36] was over 100 µM. The GI50 [37] was 40.1 µM, the TGI [37] was over 100 µM and the GI50 [38] was 25.3 µM. The TGI [38] was over 100 µM, the GI50 [39] was 96.3 µM and the TGI [39] was over 100 µM. The GI50 [40] was 7.56 µM, the TGI [40] was 31.5 µM and the GI50 [41] was 52.7 µM. It also gave a TGI [41] of over 100 µM, a GI50 [42] of 33.5 µM and a TGI [42] of over 100 µM. It also gave a GI50 [43] of 42.7 µM, a TGI [43] of over 100 µM and a GI50 [44] of 31.3 µM. The TGI [44] was over 100 µM, the GI50 [45] was 53.9 µM and the TGI [45] was over 100 µM. For the same compound, the GI50 [46] was 16.1 µM, the TGI [46] was over 100 µM and the GI50 [47] was 30.4 µM. For the same compound, the TGI [47] was over 100 µM.
